Source: US6906042B2, “Micelles” (Eisai Co., Ltd., priority 2000, dated 2005)
Where “and” joins values, the source holds several entries; their conditions need not be identical. Identical values can stand only once.

Experiments:
[1] = Micelle hydrodynamic diameter of E5564 through NaOH dissolution, lactose phosphate buffer, freeze-drying and re-hydration; details: upon freeze-drying
Description: This solution was then combined with a lactose containing phosphate buffer solution to yield a solution pH of 7-8. […] This solution was then filtered through a 0.2 μm filter to render the solution sterile in the manner conventional to pharmaceutical manufacturing. The sterile solution was then filled into vials and freeze-dried.

[2] = Micelle hydrodynamic diameter of E5564 before lyophilization and after reconstitution, admixture and storage
Description: After lyophilization the micelles were reconstituted with water diluted in an aqueous dextrose solution (Table 2). […] (Table 2).

[3] = E5564 micelle hydrodynamic diameter before and after simulated I.V. infusion using administration equipment (DLS); details: simulated administration conditions using representative infusion equipment
Description: The following conditions apply to the data in Table 4: Microbore 60″ extension set with PVC free fluid path, No. V6212 (McGraw, Inc.); 3 cc syringe with Luer Lok, No. 309585 (Becton Dickenson); Injection site with Luer Lok, No. 2N1199 (Baxter); Needle, 20G 1, No. 305175 (Becton Dickenson); I.V. catheter, JELCO, No. 4050 (Johnson & Johnson Medical Inc.).

## CCCCCC/C=C\CCCCCCCCCC(=O)N[C@H]1[C@H](OC[C@H]2O[C@H](OP(=O)(O)O)[C@H](NC(=O)CC(=O)CCCCCCCCCCC)[C@@H](OCCCCCCCCCC)[C@@H]2O)OC(COC)[C@@H](OP(=O)(O)O)[C@@H]1OCC[C@@H](CCCCCCC)OC (stereo partly shown) [Compound E5564]
[1]
  micelle hydrodynamic diameter stability: stable
[2]; […], or under refrigeration
  micelle hydrodynamic diameter stability: stable
[2]; admixed with 5% dextrose solution (0.14 mg/mL), storage for 24 hours at 25° C.
  hydrodynamic diameter (nm): 8.1 nm
[2]; admixed with 5% dextrose solution (0.14 mg/mL), storage for 72 hours at 2-8° C.
  hydrodynamic diameter (nm): 7.7 nm
[2]; immediately following admixture with 5% dextrose solution (0.14 mg/mL)
  hydrodynamic diameter (nm): 7.7 nm and 6.8 nm
[2]; immediately following reconstitution (0.5 mg/mL)
  hydrodynamic diameter (nm): 8.6 nm and 7.7 nm and 6.9 nm
[2]; reconstituted solution (0.5 mg/mL), storage for 24 hours at 25° C.
  hydrodynamic diameter (nm): 8.2 nm
[2]; reconstituted solution (0.5 mg/mL), storage for 72 hours at 2-8° C.
  hydrodynamic diameter (nm): 8.3 nm
[2]; reconstituted solution after storage of lyophilized drug product 6 months at 2-8° C.
  hydrodynamic diameter (nm): 7.5 nm
[2]; reconstituted solution after storage of lyophilized drug product 6 months at 25° C./60% RH
  hydrodynamic diameter (nm): 7.3 nm and 7.2 nm
[2]; reconstituted solution, lyophilized drug product, initial
  hydrodynamic diameter (nm): 8.6 nm and 7.7 nm and 6.9 nm
[2]; solutions prior to lyophilization
  hydrodynamic diameter (nm): 7.6 nm and 7.4 nm and 7.9 nm
[3]
  micelle hydrodynamic diameter stability: stable
